Results as given in patent US8741806B2, “Herbicides” (Syngenta Limited, priority 2009, dated 2014).

Assays:
Type in all cases: in vivo
[1] = tested on: Alopecurus myosuroides (ALOMY); test: Example A pre-emergence herbicidal activity, glasshouse pot test; conditions: Rate 250 g/ha, evaluated 20 days later, 100=total damage to plant, 0=no damage to plant
Experimental: (§1) Seeds of a variety of test species were sown in standard soil in pots. After cultivation for one day (pre-emergence) or after 10 days cultivation (post-emergence) under controlled conditions in a glasshouse, the plants were sprayed with an aqueous spray solution derived from the formulation of the technical active ingredient of formula I in 0.6 ml acetone and 45 ml formulation solution containing 10.6% Emulsogen EL (Registry number 61791-12-6), 42.2% N-methylpyrrolidone, 42.2% dipropylene glycol monomethyl ether (Registry number 34590-94-8) and 0.2% X-77 (Registry number 11097-66-8). The test plants were then grown in a greenhouse under optimum conditions until, 15 days later for post-emergence and 20 days for pre-emergence, the test was evaluated (100=total damage to plant; 0=no damage to plant). The compound of Example 1-8-a-1 from WO99/48869 was also sprayed for comparison. Alopecurus myosuroides (ALOMY), Avena fatua (AVEFA), Lolium perenne (LOLPE), Setaria faberi (SETFA), Digitaria sanguinalis (DIGSA), Echinochloa crus-galli (ECHCG) and Sorghum bicolor (SORVU) Pre-Emergence Activity

[2] = tested on: Avena fatua (AVEFA); test: as above; conditions: Rate 250 g/ha, evaluated 20 days later, 100=total damage to plant, 0=no damage to plant
Experimental: as §1

[3] = tested on: Digitaria sanguinalis (DIGSA); test: as above; conditions: Rate 250 g/ha, evaluated 20 days later, 100=total damage to plant, 0=no damage to plant
Experimental: as §1

[4] = tested on: Echinochloa crus-galli (ECHCG); test: as above; conditions: Rate 250 g/ha, evaluated 20 days later, 100=total damage to plant, 0=no damage to plant
Experimental: as §1

[5] = tested on: Lolium perenne (LOLPE); test: as above; conditions: Rate 250 g/ha, evaluated 20 days later, 100=total damage to plant, 0=no damage to plant
Experimental: as §1

[6] = tested on: Setaria faberi (SETFA); test: as above; conditions: Rate 250 g/ha, evaluated 20 days later, 100=total damage to plant, 0=no damage to plant
Experimental: as §1

[7] = tested on: Alopecurus myosuroides (ALOMY); test: Example A post-emergence herbicidal activity, glasshouse pot test; conditions: Rate 15 g/ha, evaluated 15 days later, 100=total damage to plant, 0=no damage to plant
Experimental: as §1, with “Post-Emergence” for “Pre-Emergence”

[8] = tested on: Avena fatua (AVEFA); test: as above; conditions: Rate 15 g/ha, evaluated 15 days later, 100=total damage to plant, 0=no damage to plant
Experimental: as §1, with “Post-Emergence” for “Pre-Emergence”

[9] = tested on: Digitaria sanguinalis (DIGSA); test: as above; conditions: Rate 15 g/ha, evaluated 15 days later, 100=total damage to plant, 0=no damage to plant
Experimental: as §1, with “Post-Emergence” for “Pre-Emergence”

[10] = tested on: Echinochloa crus-galli (ECHCG); test: as above; conditions: Rate 15 g/ha, evaluated 15 days later, 100=total damage to plant, 0=no damage to plant
Experimental: as §1, with “Post-Emergence” for “Pre-Emergence”

[11] = tested on: Setaria faberi (SETFA); test: as above; conditions: Rate 15 g/ha, evaluated 15 days later, 100=total damage to plant, 0=no damage to plant
Experimental: as §1, with “Post-Emergence” for “Pre-Emergence”

[12] = tested on: Sorghum bicolor (SORVU); test: as above; conditions: Rate 15 g/ha, evaluated 15 days later, 100=total damage to plant, 0=no damage to plant
Experimental: as §1, with “Post-Emergence” for “Pre-Emergence”

[13] = tested on: Alopecurus myosuroides (ALOMY); test: Example B pre-emergence herbicidal activity, glasshouse pot test; conditions: 312 h, rate 250 g/ha, evaluated after 13 days, scale 0-100, read-out: Pre-emergence activity ALOMY (100=total damage to plant; 0=no damage to plant)
Method in brief: (§2)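 Pots were sprayed one day after sowing with the active ingredient in acetone/water (50:50) containing 0.5% Tween 20. Plants were kept in a glasshouse at 24/16° C day/night, 14 h light, 65% humidity. Damage was scored 13 days later (0 none to 100 total).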

[14] = tested on: Avena fatua (AVEFA); test: as above; conditions: 312 h, rate 250 g/ha, evaluated after 13 days, scale 0-100, read-out: Pre-emergence activity AVEFA (100=total damage to plant; 0=no damage to plant)
Method in brief: as §2

[15] = tested on: Echinochloa crus-galli (ECHCG); test: as above; conditions: 312 h, rate 250 g/ha, evaluated after 13 days, scale 0-100, read-out: Pre-emergence activity ECHCG (100=total damage to plant; 0=no damage to plant)
Method in brief: as §2

[16] = tested on: Setaria faberi (SETFA); test: as above; conditions: rate 250 g/ha, evaluated after 13 days, scale 0-100
Method in brief: as §2

[17] = tested on: Alopecurus myosuroides (ALOMY); test: Example B post-emergence herbicidal activity, glasshouse pot test; conditions: 312 h, rate 250 g/ha, evaluated after 13 days, scale 0-100, read-out: Post-emergence activity ALOMY (100=total damage to plant; 0=no damage to plant)
Method in brief: (§3)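 Seeds sown in standard soil, grown 8 days in glasshouse (24/16 °C day/night, 14 h light, 65% humidity), then sprayed post-emergence with compound in acetone/water (50:50) containing 0.5% Tween 20. Damage scored visually after 13 days on a 0–100 scale (100 = total damage).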

[18] = tested on: Avena fatua (AVEFA); test: as above; conditions: 312 h, rate 250 g/ha, evaluated after 13 days, scale 0-100, read-out: Post-emergence activity AVEFA (100=total damage to plant; 0=no damage to plant)
Method in brief: as §3

[19] = tested on: Echinochloa crus-galli (ECHCG); test: as above; conditions: 312 h, rate 250 g/ha, evaluated after 13 days, scale 0-100, read-out: Post-emergence activity ECHCG (100=total damage to plant; 0=no damage to plant)
Method in brief: as §3

[20] = tested on: Setaria faberi (SETFA); test: as above; conditions: rate 250 g/ha, evaluated after 13 days, scale 0-100
Method in brief: as §3

Structure (SMILES) | Pre-Emergence Activity ALOMY (damage to plant) [1] | Pre-Emergence Activity AVEFA (damage to plant) [2] | Pre-Emergence Activity DIGSA (damage to plant) [3] | Pre-Emergence Activity ECHCG (damage to plant) [4] | Pre-Emergence Activity LOLPE (damage to plant) [5] | Pre-Emergence Activity SETFA (damage to plant) [6] | Post-Emergence Activity ALOMY (damage to plant) [7] | Post-Emergence Activity AVEFA (damage to plant) [8] | Post-Emergence Activity DIGSA (damage to plant) [9] | Post-Emergence Activity ECHCG (damage to plant) [10] | Post-Emergence Activity SETFA (damage to plant) [11] | Post-Emergence Activity SORVU (damage to plant) [12] | pest or weed control at 250 g/ha [13] [%] | pest or weed control at 250 g/ha [14] [%] | pest or weed control at 250 g/ha [15] [%] | Pre-emergence activity SETFA (100=total damage to plant; 0=no damage to plant) [16] | pest or weed control at 250 g/ha [17] [%] | pest or weed control at 250 g/ha [18] [%] | pest or weed control at 250 g/ha [19] [%] | Post-emergence activity SETFA (100=total damage to plant; 0=no damage to plant) [20]
Cc1ccc(-c2ccc(Cl)cc2)cc1C1=C(O)C(C)(C)CCC1=O [Example 1-8-a-1 from WO99/48869, reference compound] | 20 | 0 | 70 | 90 | 20 | 30 | 0 | 0 | 20 | 70 | 20 | 0 |  |  |  |  |  |  |  | 
CCc1ccc(-c2ccc(Cl)cc2)cc1C1=C(O)CCCC1=O [Compound T2] | 60 | 70 | 80 | 100 | 70 | 80 | 0 | 0 | 80 | 90 | 80 | 70 | 40 | 40 | 100 | 100 | 90 | 80 | 100 | 100
CCc1ccc(-c2ccc(Cl)cc2)cc1C1=C(O)CC(C)(C)CC1=O [Compound T3] | 90 | 50 | 100 | 100 | 100 | 80 | 50 | 20 | 70 | 70 | 70 | 70 | 60 | 20 | 100 | 100 | 100 | 20 | 100 | 100
CCc1ccc(-c2ccc(Cl)cc2)cc1C1=C(O)C(C)(C)CCC1=O [Compound T1, 2-(4′-chloro-4-ethylbiphen-3-yl)-4,4-dimethyl-1,3-cyclohexanedione] | 60 | 70 |  | 90 | 90 | 100 | 0 | 10 | 80 | 70 | 90 | 50 | 50 | 0 | 100 | 100 | 90 | 40 | 100 | 100
